Tests used:
[1] = Stability of analytes in rat plasma (auto-sampler, freeze-thaw, room temperature, long-term); conditions: for Autosampler for 24 h Accuracy (%): autosampler 24 h; for Room temperature for 24 h Accuracy (%): room temperature 24 h; for Freeze thaw cycles Accuracy (%): three freeze-thaw cycles
[2] = Stability of the working solution (4°C for 1 month); assay type: physicochemical
[3] = −80°C for 1 month, concentration 100 ng/mL

| Structure (SMILES) | Autosampler for 24 h Accuracy (%) ([1]; 12.5 ng/mL) | Room temperature for 24 h Accuracy (%) ([1]; 12.5 ng/mL) | Freeze thaw cycles Accuracy (%) ([1]; 12.5 ng/mL) | −80°C for 1month Accuracy (%) ([1]; 12.5 ng/mL, −80°C 1 month) | Autosampler for 24 h Accuracy (%) ([1]; 50 ng/mL) | −80°C for 1month Accuracy (%) ([1]; 50 ng/mL, −80°C 1 month) | Autosampler for 24 h Accuracy (%) ([1]; 100 ng/mL) | Room temperature for 24 h Accuracy (%) ([1]; 100 ng/mL) | Freeze thaw cycles Accuracy (%) ([1]; 100 ng/mL) | Room temperature for 24 h Accuracy (%) ([1]; 500 ng/mL) | −80°C for 1month Accuracy (%) ([1]; 500 ng/mL, −80°C 1 month) | Working solution Accuracy (%) ([2]; 12.5 ng/mL) | Working solution Accuracy (%) ([2]; 50 ng/mL) | Working solution Accuracy (%) ([2]; 100 ng/mL) | Working solution Accuracy (%) ([2]; 500 ng/mL) | Room temperature for 24 h Accuracy (%) ([1]; 50 ng/mL) | −80°C for 1month Accuracy (%) ([1]; 100 ng/mL, −80°C 1 month) | Autosampler for 24 h Accuracy (%) ([1]; 500 ng/mL) | Freeze thaw cycles Accuracy (%) ([1]; 500 ng/mL) | also measured |
| --- | --- | --- | --- | --- | --- | --- | --- | --- | --- | --- | --- | --- | --- | --- | --- | --- | --- | --- | --- | --- |
| CC(C)=CCC[C@](C)(O)[C@H]1CC[C@]2(C)[C@@H]1[C@H](O)C[C@@H]1[C@@]3(C)CC[C@H](O)C(C)(C)[C@@H]3[C@@H](O[C@@H]3O[C@H](CO)[C@@H](O)[C@H](O)[C@H]3O[C@@H]3O[C@H](CO)[C@@H](O)[C@H](O)[C@H]3O)C[C@]12C [ginsenoside Rf] | 112.0 | 96.1 | 97.2 | 97.1 | 98.9 | 89.6 | 88.2 | 96.8 | 89.7 | 113.0 | 112.0 | 91.9 | 94.9 | 110.0 | 102.0 | – | – | – | – | Freeze thaw cycles Accuracy (%) ([1]; 50 ng/mL): 88.0% |
| CC(=O)O[C@H]1[C@H](O[C@H]2CC[C@]34C[C@]35CC[C@]3(C)[C@@H]([C@@]6(C)CC[C@@H](C(C)(C)O)O6)[C@@H](O)C[C@@]3(C)[C@@H]5C[C@H](O[C@@H]3O[C@H](CO)[C@@H](O)[C@H](O)[C@H]3O)[C@H]4C2(C)C)OC[C@@H](O)[C@@H]1O [astragaloside II(IS)] | – | – | – | – | – | – | – | – | – | – | – | – | – | – | – | – | – | – | – | Autosampler for 24 h Accuracy (%) ([1]; concentration 100 ng/mL): 105.0%; −80°C for 1month Accuracy (%) [1, 3]: 115.0%; Working solution Accuracy (%) ([2]; concentration 100 ng/mL): 96.7% |
| O=c1cc(-c2ccccc2)oc2cc(O)c(O)c(O)c12 [baicalein] | 97.0 | 91.4 | 97.4 | 99.7 | 92.3 | 90.6 | 92.4 | – | 98.2 | 91.0 | 104.0 | – | – | – | – | 85.5 | 95.5 | 93.2 | 94.0 | – |
| COc1c2c(cc3oc(CO)cc(=O)c13)O[C@H](C(C)(C)O)C2 [cimifugin] | 91.1 | – | 92.0 | 96.3 | – | – | 100.0 | 98.0 | 95.7 | 98.6 | 95.2 | 100.0 | – | – | 86.7 | – | 99.6 | 102.0 | 93.2 | Autosampler for 24 h Accuracy (%) ([1]; 1.56 ng/mL): 102.0%; Room temperature for 24 h Accuracy (%) ([1]; 1.56 ng/mL): 92.4%; Freeze thaw cycles Accuracy (%) ([1]; 1.56 ng/mL): 84.5%; −80°C for 1month Accuracy (%) ([1]; 1.56 ng/mL, −80°C 1 month): 83.9%; Working solution Accuracy (%) ([2]; 1.56 ng/mL): 90.5% |
| C[C@]1(OC(=O)/C=C/c2ccccc2)C[C@@H](O)[C@]2(O)C=CO[C@@H](O[C@@H]3O[C@H](CO)[C@@H](O)[C@H](O)[C@H]3O)[C@@H]21 [harpagoside] | 101.0 | 108.0 | 98.1 | – | – | – | 93.8 | 100.0 | 93.2 | 95.7 | – | 105.0 | – | – | 88.5 | – | – | – | 95.1 | Autosampler for 24 h Accuracy (%) ([1]; 1.56 ng/mL): 105.0%; Room temperature for 24 h Accuracy (%) ([1]; 1.56 ng/mL): 95.0%; Freeze thaw cycles Accuracy (%) ([1]; 1.56 ng/mL): 91.5%; −80°C for 1month Accuracy (%) ([1]; 1.56 ng/mL, −80°C 1 month): 86.6%; Working solution Accuracy (%) ([2]; 1.56 ng/mL): 83.8% |
| C[C@@]12C[C@@]3(O)O[C@@H](O1)[C@]1(COC(=O)c4ccccc4)[C@H]3C[C@@]12O[C@@H]1O[C@H](CO)[C@@H](O)[C@H](O)[C@H]1O [paeoniflorin] | 86.8 | 106.0 | 97.6 | 97.6 | 97.6 | 96.4 | 111.0 | 86.8 | 93.4 | 92.2 | 95.3 | 106.0 | – | – | 93.2 | 106.0 | 95.2 | 92.0 | 93.1 | Freeze thaw cycles Accuracy (%) ([1]; 50 ng/mL): 94.1% |
| COc1ccc(-c2oc3c(CC=C(C)C)c(O[C@@H]4O[C@H](CO)[C@@H](O)[C@H](O)[C@H]4O)cc(O)c3c(=O)c2O[C@@H]2O[C@@H](C)[C@H](O)[C@@H](O)[C@H]2O)cc1 [icariin (IS)] | – | – | – | – | – | – | – | – | – | – | – | – | – | – | – | – | – | – | – | Working solution Accuracy (%) ([2]; concentration 100 ng/mL): 94.8% |
| COc1c2ccoc2c(OC)c2oc(=O)ccc12 [isopimpinellin (IS)] | – | – | – | – | – | – | – | – | – | – | – | – | – | – | – | – | – | – | – | Autosampler for 24 h Accuracy (%) ([1]; concentration 100 ng/mL): 98.6%; Room temperature for 24 h Accuracy (%) ([1]; concentration 100 ng/mL): 96.5%; Freeze thaw cycles Accuracy (%) ([1]; concentration 100 ng/mL): 88.2%; −80°C for 1month Accuracy (%) [1, 3]: 109.0%; Working solution Accuracy (%) ([2]; concentration 100 ng/mL): 93.5% |
| O=C(O)[C@H]1O[C@@H](Oc2cc3oc(-c4ccc(O)cc4)cc(=O)c3c(O)c2O)[C@H](O)[C@@H](O)[C@@H]1O [scutellarin] | – | – | – | – | – | 92.2 | 109.0 | 101.0 | 111.0 | 105.0 | 103.0 | – | 97.2 | 108.0 | 100.0 | 91.2 | 101.0 | 101.0 | 112.0 | Autosampler for 24 h Accuracy (%) ([1]; 200 ng/mL): 94.7%; Room temperature for 24 h Accuracy (%) ([1]; 200 ng/mL): 90.6%; Freeze thaw cycles Accuracy (%) ([1]; 200 ng/mL): 85.4%; −80°C for 1month Accuracy (%) ([1]; 200 ng/mL, −80°C 1 month): 90.4%; Working solution Accuracy (%) ([2]; 200 ng/mL): 99.4% |
| CC(C)=CCC[C@](C)(O)[C@H]1CC[C@]2(C)[C@@H]1[C@H](O)C[C@@H]1[C@@]3(C)CC[C@H](O)C(C)(C)[C@@H]3[C@@H](O[C@@H]3O[C@H](CO)[C@@H](O)[C@H](O)[C@H]3O)C[C@]12C [ginsenoside Rh1] | – | – | – | – | 86.5 | 107.0 | 90.8 | 96.5 | 100.0 | – | – | – | 106.0 | 95.1 | – | 100.0 | 93.5 | – | – | Autosampler for 24 h Accuracy (%) ([1]; concentration 200 ng/mL): 96.5%; Autosampler for 24 h Accuracy (%) ([1]; concentration 500 ng/mL): 108.0%; Room temperature for 24 h Accuracy (%) ([1]; concentration 500 ng/mL): 98.7%; Freeze thaw cycles Accuracy (%) ([1]; concentration 500 ng/mL): 94.1%; −80°C for 1month Accuracy (%) ([1]; −80°C for 1 month, concentration 500 ng/mL): 114.0% |
| O.Oc1cc(O)c2c(c1)O[C@H](c1ccc(O)c(O)c1)[C@@H](O)C2 [catechin] | – | – | – | – | – | – | – | – | – | – | – | 91.6 | 106.0 | 97.4 | 100.0 | – | – | – | – | – |
| CC(C)(O[C@@H]1O[C@H](CO)[C@@H](O)[C@H](O)[C@H]1O)[C@@H]1CC[C@](O)(CO)[C@H]2CC(=O)[C@@](C)(O)[C@@H]2C1 [atractyloside A] | – | – | – | – | 107.0 | 89.7 | 94.4 | 104.0 | – | 91.2 | 92.2 | – | 88.5 | 104.0 | 97.2 | 97.6 | 96.2 | 103.0 | – | Freeze thaw cycles Accuracy (%) ([1]; 50 ng/mL): 84.6%; Autosampler for 24 h Accuracy (%) ([1]; 200 ng/mL): 91.5%; Room temperature for 24 h Accuracy (%) ([1]; 200 ng/mL): 89.9%; Freeze thaw cycles Accuracy (%) ([1]; 200 ng/mL): 97.0%; −80°C for 1month Accuracy (%) ([1]; 200 ng/mL, −80°C 1 month): 93.4%; Working solution Accuracy (%) ([2]; 200 ng/mL): 87.0% |
| COc1ccc(-c2coc3cc(O[C@@H]4O[C@H](CO)[C@@H](O)[C@H](O)[C@H]4O)ccc3c2=O)cc1 [ononin] | 95.3 | 109.0 | 108.0 | 92.2 | – | – | 94.4 | 86.9 | 99.0 | 93.2 | 98.2 | 87.5 | – | 104.0 | 91.3 | – | – | 104.0 | – | Room temperature for 24 h Accuracy (%) ([1]; 1.56 ng/mL): 98.6%; Freeze thaw cycles Accuracy (%) ([1]; 1.56 ng/mL): 95.6%; −80°C for 1month Accuracy (%) ([1]; 1.56 ng/mL, −80°C 1 month): 111.0%; Working solution Accuracy (%) ([2]; 1.56 ng/mL): 84.3% |

— article PMC10133546, “Simultaneous determination of multiple components in rat plasma by UHPLC-sMRM for pharmacokinetic studies after oral administration of Qingjin Yiqi Granules” (Frontiers in Pharmacology, 2023)
